{"source": "patent US6080725A", "about": "“Immunostimulating and vaccine compositions employing saponin analog adjuvants and uses thereof” (priority 1999, dated 2000)", "origin": "cited, not measured here", "tested_on": "lymphoproliferative test", "note": "Where two headings read alike, the source gives them in different places.", "data": [{"smiles": "CC(=O)O[C@@H]1[C@H](O[C@@H]2O[C@@H](CO)[C@H](O)[C@H]2O)[C@@H](O[C@@H]2O[C@@H](C)[C@H](O[C@@H]3OC[C@@H](O)[C@H](O)[C@H]3O)[C@@H](O)[C@H]2O)[C@H](OC(=O)[C@]23CCC(C)(C)C[C@H]2C2=CC[C@@H]4[C@@]5(C)CC[C@H](O[C@@H]6O[C@H](C(=O)O)[C@@H](O)[C@H](O[C@@H]7OC[C@@H](O)[C@H](O)[C@H]7O)[C@H]6O[C@@H]6O[C@H](CO)[C@H](O)[C@H](O)[C@H]6O)[C@@](C)(C=O)[C@H]5CC[C@@]4(C)[C@]2(C)CC3)O[C@@H]1C", "note": "[squarroside A]", "values": [{"measurement": "immunomodulating effect, lymphoproliferative test", "setting": "concentrations in the pg range", "value": "stimulant effect"}, {"measurement": "immunomodulating effect, lymphoproliferative test", "setting": "concentrations in the μg range", "value": "suppressive effect"}, {"measurement": "immunomodulating activity, lymphoproliferative test", "setting": "dose-dependent", "value": "immunomodulating activity"}]}]}
